Tests used:
[1] = molecular target: T1, Interleukin-1 receptor-associated kinase 4 (Homo sapiens) (UniProt Q9NWZ3); experiment: Inhibition of human IRAK4 catalytic domain expressed in baculovirus assessed as substrate phosphorylation using fluorescence-labelled peptides as substrate at 2 uM after 90 mins by microfluidic peptide phosphorylation assay
T1 sequence (whole entry): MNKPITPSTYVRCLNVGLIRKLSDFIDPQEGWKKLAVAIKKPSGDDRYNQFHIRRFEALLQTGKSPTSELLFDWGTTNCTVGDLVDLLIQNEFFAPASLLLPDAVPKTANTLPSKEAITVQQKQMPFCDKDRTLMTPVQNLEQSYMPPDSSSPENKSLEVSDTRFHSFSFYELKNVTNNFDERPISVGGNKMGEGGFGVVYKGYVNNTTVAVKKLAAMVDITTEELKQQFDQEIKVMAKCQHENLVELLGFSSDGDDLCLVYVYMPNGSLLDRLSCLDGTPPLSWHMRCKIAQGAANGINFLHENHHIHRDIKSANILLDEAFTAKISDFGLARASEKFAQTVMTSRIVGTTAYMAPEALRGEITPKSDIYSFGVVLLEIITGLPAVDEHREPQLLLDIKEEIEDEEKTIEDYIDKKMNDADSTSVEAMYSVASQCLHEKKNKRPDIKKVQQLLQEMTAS

[2] = molecular target: Mitogen-activated protein kinase 1 (Homo sapiens) (UniProt P28482); experiment: Inhibition of human full length ERK2 expressed in Escherichia coli cell assessed as substrate phosphorylation using fluorescence-labelled peptides as substrate at 1000 uM after 90 mins by microfluidic peptide phosphorylation assay
[3] = molecular target: Glycogen synthase kinase-3 beta (Homo sapiens) (UniProt P49841); experiment: Inhibition of human full length GSK-3 beta expressed in baculovirus assessed as substrate phosphorylation using fluorescence-labelled peptides as substrate at 0.06 uM after 90 mins by microfluidic peptide phosphorylation assay
[4] = molecular target: Ribosomal protein S6 kinase alpha-2 (Homo sapiens) (UniProt Q15349); experiment: Inhibition of human full length RSK3 expressed in baculovirus assessed as substrate phosphorylation using fluorescence-labelled peptides as substrate at 0.06 uM after 90 mins by microfluidic peptide phosphorylation assay
[5] = molecular target: MAP kinase-activated protein kinase 3 (Homo sapiens) (UniProt Q16644); experiment: Inhibition of human full length MAPKAPK3 expressed in Escherichia coli cell assessed as substrate phosphorylation using fluorescence-labelled peptides as substrate at 0.06 uM after 90 mins by microfluidic peptide phosphorylation assay
[6] = molecular target: RAF proto-oncogene serine/threonine-protein kinase (Homo sapiens) (UniProt P04049); experiment: Inhibition of human truncated c-Raf expressed in baculovirus assessed as substrate phosphorylation using fluorescence-labelled peptides as substrate at 0.1 uM after 90 mins by microfluidic peptide phosphorylation assay
[7] = molecular target: Fibroblast growth factor receptor 3 (Homo sapiens) (UniProt P22607); experiment: Inhibition of human FGFR3 catalytic domain expressed in baculovirus assessed as substrate phosphorylation using fluorescence-labelled peptides as substrate at 0.1 uM after 90 mins by microfluidic peptide phosphorylation assay
[8] = molecular target: T2, Protein kinase C epsilon type (Homo sapiens) (UniProt Q02156); experiment: Inhibition of human truncated PKC epsilon expressed in baculovirus assessed as substrate phosphorylation using fluorescence-labelled peptides as substrate at […] after 90 mins by microfluidic peptide phosphorylation assay
T2 sequence (whole entry): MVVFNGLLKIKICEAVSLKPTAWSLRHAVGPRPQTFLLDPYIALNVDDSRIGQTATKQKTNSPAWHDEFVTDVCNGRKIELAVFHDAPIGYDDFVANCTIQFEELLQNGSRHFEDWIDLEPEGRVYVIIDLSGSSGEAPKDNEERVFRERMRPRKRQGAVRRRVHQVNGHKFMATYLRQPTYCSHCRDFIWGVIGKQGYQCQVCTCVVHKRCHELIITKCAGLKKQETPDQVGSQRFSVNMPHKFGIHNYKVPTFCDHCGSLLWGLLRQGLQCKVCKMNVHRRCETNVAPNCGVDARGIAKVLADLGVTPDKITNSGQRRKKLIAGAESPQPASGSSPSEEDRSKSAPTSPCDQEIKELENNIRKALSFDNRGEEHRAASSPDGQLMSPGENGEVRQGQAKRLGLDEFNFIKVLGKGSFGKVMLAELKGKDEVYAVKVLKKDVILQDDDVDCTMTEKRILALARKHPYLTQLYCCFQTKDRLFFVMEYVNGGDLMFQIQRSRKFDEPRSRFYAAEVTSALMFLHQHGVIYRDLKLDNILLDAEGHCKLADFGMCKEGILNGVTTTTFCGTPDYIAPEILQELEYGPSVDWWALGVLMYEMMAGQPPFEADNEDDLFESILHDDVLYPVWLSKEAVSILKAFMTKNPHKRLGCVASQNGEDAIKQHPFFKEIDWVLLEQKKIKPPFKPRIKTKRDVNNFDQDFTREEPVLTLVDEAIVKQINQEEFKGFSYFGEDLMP

[9] = molecular target: T3, Mitogen-activated protein kinase 12 (Homo sapiens) (UniProt P53778); experiment: Inhibition of human full length p38 gamma expressed in Escherichia coli cell assessed as substrate phosphorylation using fluorescence-labelled peptides as substrate at 420 uM after 90 mins by microfluidic peptide phosphorylation assay
T3 sequence (whole entry): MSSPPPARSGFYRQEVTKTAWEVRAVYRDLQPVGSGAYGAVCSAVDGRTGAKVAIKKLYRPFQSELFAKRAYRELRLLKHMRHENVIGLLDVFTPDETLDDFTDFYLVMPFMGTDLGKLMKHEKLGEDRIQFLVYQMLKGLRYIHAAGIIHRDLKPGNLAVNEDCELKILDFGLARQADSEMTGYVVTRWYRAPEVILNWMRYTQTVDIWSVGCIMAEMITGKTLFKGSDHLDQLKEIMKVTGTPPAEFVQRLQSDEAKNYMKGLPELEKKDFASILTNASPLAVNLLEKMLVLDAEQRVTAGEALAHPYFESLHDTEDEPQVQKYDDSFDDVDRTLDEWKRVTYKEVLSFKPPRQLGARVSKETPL

[10] = molecular target: Cyclin-dependent kinase 2 (Homo sapiens) (UniProt P24941); experiment: Inhibition of human full length CDK2 expressed in baculovirus assessed as substrate phosphorylation using fluorescence-labelled peptides as substrate at 9 uM after 90 mins by microfluidic peptide phosphorylation assay
[11] = molecular target: Mitogen-activated protein kinase kinase kinase kinase 4 (Homo sapiens) (UniProt O95819); experiment: Inhibition of human HGK catalytic domain expressed in baculovirus assessed as substrate phosphorylation using fluorescence-labelled peptides as substrate at 9 uM after 90 mins by microfluidic peptide phosphorylation assay
[12] = molecular target: RAC-alpha serine/threonine-protein kinase (Homo sapiens) (UniProt P31749); experiment: Inhibition of human AKT1 catalytic domain expressed in baculovirus assessed as substrate phosphorylation using fluorescence-labelled peptides as substrate at 70 uM after 90 mins by microfluidic peptide phosphorylation assay
[13] = molecular target: Tyrosine-protein kinase HCK (Homo sapiens) (UniProt P08631); experiment: Inhibition of human HCK catalytic domain expressed in baculovirus assessed as substrate phosphorylation using fluorescence-labelled peptides as substrate at 70 uM after 90 mins by microfluidic peptide phosphorylation assay
Chain of Tyrosine-protein kinase HCK (Homo sapiens) (P08631 2-526 limits assumed): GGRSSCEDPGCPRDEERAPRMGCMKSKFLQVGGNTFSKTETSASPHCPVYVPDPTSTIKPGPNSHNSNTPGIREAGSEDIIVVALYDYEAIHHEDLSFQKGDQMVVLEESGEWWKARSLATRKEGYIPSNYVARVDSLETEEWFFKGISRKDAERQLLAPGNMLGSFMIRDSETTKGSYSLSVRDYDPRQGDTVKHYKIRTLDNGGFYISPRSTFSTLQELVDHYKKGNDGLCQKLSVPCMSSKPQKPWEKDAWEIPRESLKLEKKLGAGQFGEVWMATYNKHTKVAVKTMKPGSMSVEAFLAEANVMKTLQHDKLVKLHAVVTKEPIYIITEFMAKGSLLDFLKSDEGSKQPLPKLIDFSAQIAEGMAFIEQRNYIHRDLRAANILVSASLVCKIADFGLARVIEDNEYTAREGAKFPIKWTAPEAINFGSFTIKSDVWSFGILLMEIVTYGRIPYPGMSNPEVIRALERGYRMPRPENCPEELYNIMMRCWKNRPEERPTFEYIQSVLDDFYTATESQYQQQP

Chain of Fibroblast growth factor receptor 3 (Homo sapiens) (P22607 23-806 limits assumed): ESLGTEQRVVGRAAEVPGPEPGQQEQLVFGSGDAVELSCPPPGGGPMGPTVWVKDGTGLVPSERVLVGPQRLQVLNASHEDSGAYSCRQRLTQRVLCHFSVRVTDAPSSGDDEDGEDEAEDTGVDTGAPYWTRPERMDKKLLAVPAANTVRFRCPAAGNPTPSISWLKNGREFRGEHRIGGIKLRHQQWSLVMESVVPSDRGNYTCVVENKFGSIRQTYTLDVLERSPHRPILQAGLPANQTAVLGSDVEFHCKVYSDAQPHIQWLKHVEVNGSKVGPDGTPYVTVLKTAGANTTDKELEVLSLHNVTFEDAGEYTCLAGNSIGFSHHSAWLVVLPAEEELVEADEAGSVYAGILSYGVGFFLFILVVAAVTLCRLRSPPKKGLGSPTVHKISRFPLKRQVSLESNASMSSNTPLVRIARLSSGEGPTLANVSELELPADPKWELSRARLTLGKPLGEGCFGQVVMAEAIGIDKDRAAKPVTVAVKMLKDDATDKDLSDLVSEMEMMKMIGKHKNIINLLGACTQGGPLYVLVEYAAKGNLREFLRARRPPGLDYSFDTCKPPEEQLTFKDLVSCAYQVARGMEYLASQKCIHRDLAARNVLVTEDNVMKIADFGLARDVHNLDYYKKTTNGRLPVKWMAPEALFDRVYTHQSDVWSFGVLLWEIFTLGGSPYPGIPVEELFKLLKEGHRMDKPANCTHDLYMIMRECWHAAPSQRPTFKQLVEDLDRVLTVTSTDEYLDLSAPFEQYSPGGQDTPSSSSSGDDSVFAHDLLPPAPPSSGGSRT
Chain of Mitogen-activated protein kinase 1 (Homo sapiens) (P28482 whole entry): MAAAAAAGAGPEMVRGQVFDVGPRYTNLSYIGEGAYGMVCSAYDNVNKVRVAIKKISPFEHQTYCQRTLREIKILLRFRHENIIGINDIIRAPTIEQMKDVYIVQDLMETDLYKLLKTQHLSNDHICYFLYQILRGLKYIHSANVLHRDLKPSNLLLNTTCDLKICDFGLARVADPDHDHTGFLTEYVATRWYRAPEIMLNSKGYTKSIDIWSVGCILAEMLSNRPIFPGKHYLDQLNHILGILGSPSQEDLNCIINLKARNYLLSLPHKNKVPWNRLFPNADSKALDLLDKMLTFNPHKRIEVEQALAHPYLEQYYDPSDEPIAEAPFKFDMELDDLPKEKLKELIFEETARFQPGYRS
Chain of MAP kinase-activated protein kinase 3 (Homo sapiens) (Q16644 whole entry, looked up, the tested form may be a part): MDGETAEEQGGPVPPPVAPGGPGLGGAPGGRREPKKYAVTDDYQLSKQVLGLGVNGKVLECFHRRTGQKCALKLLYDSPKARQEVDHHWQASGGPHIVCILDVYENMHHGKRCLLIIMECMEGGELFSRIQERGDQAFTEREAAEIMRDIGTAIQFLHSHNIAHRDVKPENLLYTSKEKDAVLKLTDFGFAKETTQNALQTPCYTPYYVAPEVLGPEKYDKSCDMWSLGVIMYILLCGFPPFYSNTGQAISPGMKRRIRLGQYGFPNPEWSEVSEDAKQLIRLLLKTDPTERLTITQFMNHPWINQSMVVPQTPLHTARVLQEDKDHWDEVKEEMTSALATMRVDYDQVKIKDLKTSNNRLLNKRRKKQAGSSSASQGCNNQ
Chain of Ribosomal protein S6 kinase alpha-2 (Homo sapiens) (Q15349 whole entry): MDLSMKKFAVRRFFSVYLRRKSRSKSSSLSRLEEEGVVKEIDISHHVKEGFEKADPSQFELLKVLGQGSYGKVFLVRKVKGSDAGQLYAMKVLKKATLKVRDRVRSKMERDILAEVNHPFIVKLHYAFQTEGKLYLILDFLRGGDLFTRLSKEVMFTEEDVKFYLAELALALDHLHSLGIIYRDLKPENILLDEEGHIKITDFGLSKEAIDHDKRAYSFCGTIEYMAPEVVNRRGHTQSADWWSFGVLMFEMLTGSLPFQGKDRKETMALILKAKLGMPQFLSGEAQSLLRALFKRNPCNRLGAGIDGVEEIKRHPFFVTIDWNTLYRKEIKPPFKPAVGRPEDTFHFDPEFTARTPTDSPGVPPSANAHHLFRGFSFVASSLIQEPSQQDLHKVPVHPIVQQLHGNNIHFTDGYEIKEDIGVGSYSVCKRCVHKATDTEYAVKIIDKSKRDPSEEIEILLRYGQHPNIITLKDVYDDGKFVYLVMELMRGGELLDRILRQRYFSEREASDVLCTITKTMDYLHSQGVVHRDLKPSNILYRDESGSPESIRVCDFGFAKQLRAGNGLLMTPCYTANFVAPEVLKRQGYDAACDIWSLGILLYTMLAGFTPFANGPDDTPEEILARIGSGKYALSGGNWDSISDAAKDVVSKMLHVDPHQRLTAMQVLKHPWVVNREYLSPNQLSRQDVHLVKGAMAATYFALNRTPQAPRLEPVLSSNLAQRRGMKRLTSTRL
Chain of RAF proto-oncogene serine/threonine-protein kinase (Homo sapiens) (P04049 whole entry, the tested form may be a part): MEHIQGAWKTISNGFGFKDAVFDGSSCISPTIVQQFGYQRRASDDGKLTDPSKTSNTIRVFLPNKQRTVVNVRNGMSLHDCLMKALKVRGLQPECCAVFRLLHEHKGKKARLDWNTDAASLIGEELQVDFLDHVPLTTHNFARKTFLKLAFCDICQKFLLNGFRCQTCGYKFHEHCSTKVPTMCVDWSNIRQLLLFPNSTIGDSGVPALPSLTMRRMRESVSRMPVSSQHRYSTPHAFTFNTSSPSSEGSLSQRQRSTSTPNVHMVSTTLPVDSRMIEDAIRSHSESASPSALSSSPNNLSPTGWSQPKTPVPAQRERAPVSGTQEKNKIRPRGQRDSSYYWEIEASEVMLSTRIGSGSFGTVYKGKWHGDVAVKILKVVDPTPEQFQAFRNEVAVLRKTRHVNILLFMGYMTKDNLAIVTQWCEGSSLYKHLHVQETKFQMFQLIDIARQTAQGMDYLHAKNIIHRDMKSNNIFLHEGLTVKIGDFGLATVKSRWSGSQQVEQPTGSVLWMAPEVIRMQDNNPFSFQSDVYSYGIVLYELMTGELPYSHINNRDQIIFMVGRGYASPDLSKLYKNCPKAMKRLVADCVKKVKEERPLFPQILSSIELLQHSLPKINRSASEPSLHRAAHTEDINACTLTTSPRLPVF
Chain of Glycogen synthase kinase-3 beta (Homo sapiens) (P49841 whole entry, looked up): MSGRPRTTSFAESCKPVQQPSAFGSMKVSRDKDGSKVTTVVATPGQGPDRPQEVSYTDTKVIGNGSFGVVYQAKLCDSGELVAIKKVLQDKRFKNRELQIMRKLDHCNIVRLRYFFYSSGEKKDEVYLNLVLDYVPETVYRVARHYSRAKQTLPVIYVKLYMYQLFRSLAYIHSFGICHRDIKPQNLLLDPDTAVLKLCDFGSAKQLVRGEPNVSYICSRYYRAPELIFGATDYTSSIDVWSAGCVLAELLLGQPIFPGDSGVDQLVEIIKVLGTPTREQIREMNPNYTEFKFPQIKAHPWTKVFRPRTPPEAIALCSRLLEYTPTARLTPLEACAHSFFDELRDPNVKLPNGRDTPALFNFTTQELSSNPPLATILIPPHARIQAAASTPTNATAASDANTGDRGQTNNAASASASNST
Chain of RAC-alpha serine/threonine-protein kinase (Homo sapiens) (P31749 whole entry, the tested form may be a part): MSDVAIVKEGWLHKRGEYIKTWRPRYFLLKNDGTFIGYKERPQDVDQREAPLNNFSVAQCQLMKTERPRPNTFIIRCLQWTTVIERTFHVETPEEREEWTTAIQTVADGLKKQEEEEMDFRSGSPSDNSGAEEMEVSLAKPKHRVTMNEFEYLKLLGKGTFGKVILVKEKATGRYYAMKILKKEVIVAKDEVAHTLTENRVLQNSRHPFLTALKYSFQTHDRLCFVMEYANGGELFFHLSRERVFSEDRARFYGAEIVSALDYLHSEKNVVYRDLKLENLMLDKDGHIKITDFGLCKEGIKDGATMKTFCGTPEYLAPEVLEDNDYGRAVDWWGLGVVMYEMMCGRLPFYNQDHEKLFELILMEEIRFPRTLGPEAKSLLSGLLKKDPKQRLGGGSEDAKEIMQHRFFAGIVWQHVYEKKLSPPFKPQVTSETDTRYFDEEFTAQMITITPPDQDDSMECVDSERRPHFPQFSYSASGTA

Structure (SMILES): NC1CCN(c2ncnc3[nH]ccc23)CC1
- inhibition [1]: 1.5%

Structure (SMILES): c1cnc2[nH]ccc2c1
- inhibition [2]: 23.5%

Structure (SMILES): NC1(Cc2ccc(Cl)cc2)CCN(c2ncnc3[nH]ccc23)CC1
- inhibition [3]: 0%
- inhibition [4]: 0%
- inhibition [5]: 7%

Structure (SMILES): C[C@H](CN(C)C)Oc1nc(Nc2cc3cccc(Cl)c3cn2)cnc1C#N
- inhibition [6]: 4%
- inhibition [7]: 5.5%

Structure (SMILES): COC(=O)c1cnc(Nc2cnc(C#N)cn2)cc1NCC1CCNCC1
- inhibition [8]: 1%

Structure (SMILES): c1nc(N2CCOCC2)c2nc[nH]c2n1
- inhibition [9]: 41.5%

Structure (SMILES): NCC1CN(c2ncnc3[nH]c4cnccc4c23)CCO1 (stereo not drawn)
- inhibition [10]: 26.5%
- inhibition [11]: 54.5%

Structure (SMILES): CNCc1ccc(-c2ncnc3[nH]cnc23)cc1
- inhibition [12]: 64.5%
- inhibition [13]: 18.5%
